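How tested: cells in 96-well plates exposed to compound for 48 hours at five concentrations. TGI: total growth inhibition.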
Legend:
Assay in all cases: growth of human tumour cells (NCI), 48 h
OVCAR-4 ovarian = system: OVCAR-4 ovarian
MDA-MB-231 breast = system: MDA-MB-231 breast
OVCAR-5 ovarian = system: OVCAR-5 ovarian
OVCAR-3 ovarian = system: OVCAR-3 ovarian
SN12C renal = system: SN12C renal
COLO 205 colon = system: COLO 205 colon
BT-549 breast = system: BT-549 breast
SNB-19 CNS = system: SNB-19 CNS
T-47D breast = system: T-47D breast
UO-31 renal = system: UO-31 renal
CCRF-CEM leukemia = system: CCRF-CEM leukemia
SK-MEL-28 melanoma = system: SK-MEL-28 melanoma
LOX IMVI melanoma = system: LOX IMVI melanoma
SK-MEL-5 melanoma = system: SK-MEL-5 melanoma
PC-3 prostate = system: PC-3 prostate
SK-MEL-2 melanoma = system: SK-MEL-2 melanoma
NCI/ADR-RES ovarian = system: NCI/ADR-RES ovarian
NCI-H23 lung = system: NCI-H23 lung
IGROV1 ovarian = system: IGROV1 ovarian
OVCAR-8 ovarian = system: OVCAR-8 ovarian
MOLT-4 leukemia = system: MOLT-4 leukemia
NCI-H522 lung = system: NCI-H522 lung
MCF7 breast = system: MCF7 breast
SW-620 colon = system: SW-620 colon
CAKI-1 renal = system: CAKI-1 renal
A498 renal = system: A498 renal
TK-10 renal = system: TK-10 renal
EKVX NSCLC = system: EKVX NSCLC
UACC-62 melanoma = system: UACC-62 melanoma
KM12 colon = system: KM12 colon
HOP-92 NSCLC = system: HOP-92 NSCLC
RXF 393 renal = system: RXF 393 renal
DU-145 prostate = system: DU-145 prostate
SF-295 CNS = system: SF-295 CNS
NCI-H226 lung = system: NCI-H226 lung
HOP-62 NSCLC = system: HOP-62 NSCLC
HT29 colon = system: HT29 colon
SF-539 CNS = system: SF-539 CNS
HS 578T breast = system: HS 578T breast
SF-268 CNS = system: SF-268 CNS
RPMI-8226 leukemia = system: RPMI-8226 leukemia
MDA-N = system: MDA-N
HCT-116 colon = system: HCT-116 colon
HCT-15 colon = system: HCT-15 colon
NCI-H460 lung = system: NCI-H460 lung
786-0 renal = system: 786-0 renal
HCC-2998 colon = system: HCC-2998 colon
U251 CNS = system: U251 CNS
MDA-MB-435 = system: MDA-MB-435
SNB-75 CNS = system: SNB-75 CNS
UACC-257 melanoma = system: UACC-257 melanoma
ACHN renal = system: ACHN renal
SR leukemia = system: SR leukemia
MALME-3M melanoma = system: MALME-3M melanoma
A549 NSCLC = system: A549 NSCLC
SK-OV-3 ovarian = system: SK-OV-3 ovarian
K-562 leukemia = system: K-562 leukemia
M14 melanoma = system: M14 melanoma
HL-60(TB) leukemia = system: HL-60(TB) leukemia

**Q.** For COC(=O)C1OC(O[C@H]2CC[C@]3(C)[C@H]4CC=C5[C@@H]6CC(C)(C)CC[C@]6(C(=O)OC6OCC(O)C(O)C6OC6OC(C)C(OC7OCC(O)C(O)C7O)C(OC7OCC(O)(CO)C7O)C6O)[C@H](O)C[C@@]5(C)[C@]4(C)CC[C@H]3C2(C)C)C(O)C(O)C1O (stereo not given in full), which TGI (OVCAR-4 ovarian) is on record?
**A.** 17.4 µM

**Q.** And the TGI (MDA-MB-231 breast)?
**A.** 7.56 µM

**Q.** What about the TGI (OVCAR-5 ovarian) of the same compound?
**A.** 13.4 µM

**Q.** What about the TGI (OVCAR-3 ovarian) of the same compound?
**A.** 23.2 µM

**Q.** What about the TGI (SN12C renal) of the same compound?
**A.** 3.6 µM

**Q.** And the TGI (COLO 205 colon)?
**A.** 2.92 µM

**Q.** And the TGI (BT-549 breast)?
**A.** 6.55 µM

**Q.** And the TGI (SNB-19 CNS)?
**A.** 19 µM

**Q.** What about the TGI (T-47D breast) of the same compound?
**A.** 15.3 µM

**Q.** And the TGI (UO-31 renal)?
**A.** 4.62 µM

**Q.** And the TGI (CCRF-CEM leukemia)?
**A.** > 100 µM

**Q.** What about the TGI (SK-MEL-28 melanoma) of the same compound?
**A.** 4.69 µM

**Q.** And the TGI (LOX IMVI melanoma)?
**A.** 20.1 µM

**Q.** And the TGI (SK-MEL-5 melanoma)?
**A.** 16.6 µM

**Q.** What about the TGI (PC-3 prostate) of the same compound?
**A.** 14.5 µM

**Q.** And the TGI (SK-MEL-2 melanoma)?
**A.** 5.82 µM

**Q.** And the TGI (NCI/ADR-RES ovarian)?
**A.** 18.2 µM

**Q.** What about the TGI (NCI-H23 lung) of the same compound?
**A.** 3.56 µM

**Q.** And the TGI (IGROV1 ovarian)?
**A.** 27.1 µM

**Q.** What about the TGI (OVCAR-8 ovarian) of the same compound?
**A.** 24.4 µM

**Q.** What about the TGI (MOLT-4 leukemia) of the same compound?
**A.** > 100 µM

**Q.** And the TGI (NCI-H522 lung)?
**A.** 5.78 µM

**Q.** What about the TGI (MCF7 breast) of the same compound?
**A.** 3.43 µM

**Q.** What about the TGI (SW-620 colon) of the same compound?
**A.** 19.2 µM

**Q.** What about the TGI (CAKI-1 renal) of the same compound?
**A.** 17.5 µM

**Q.** And the TGI (A498 renal)?
**A.** 3.3 µM

**Q.** What about the TGI (TK-10 renal) of the same compound?
**A.** 29.4 µM

**Q.** And the TGI (EKVX NSCLC)?
**A.** 8.21 µM

**Q.** What about the TGI (UACC-62 melanoma) of the same compound?
**A.** 6.08 µM

**Q.** And the TGI (KM12 colon)?
**A.** 9.49 µM

**Q.** What about the TGI (HOP-92 NSCLC) of the same compound?
**A.** 3.94 µM

**Q.** What about the TGI (RXF 393 renal) of the same compound?
**A.** 24.6 µM

**Q.** And the TGI (DU-145 prostate)?
**A.** 20.9 µM

**Q.** What about the TGI (SF-295 CNS) of the same compound?
**A.** 15.9 µM

**Q.** What about the TGI (NCI-H226 lung) of the same compound?
**A.** 15.5 µM

**Q.** And the TGI (HOP-62 NSCLC)?
**A.** 10.1 µM

**Q.** And the TGI (HT29 colon)?
**A.** 7.16 µM

**Q.** What about the TGI (SF-539 CNS) of the same compound?
**A.** > 100 µM

**Q.** And the TGI (HS 578T breast)?
**A.** 28.2 µM

**Q.** What about the TGI (SF-268 CNS) of the same compound?
**A.** 24 µM

**Q.** What about the TGI (RPMI-8226 leukemia) of the same compound?
**A.** > 31.1 µM

**Q.** What about the TGI (MDA-N) of the same compound?
**A.** 4.14 µM

**Q.** And the TGI (HCT-116 colon)?
**A.** 13.5 µM

**Q.** And the TGI (HCT-15 colon)?
**A.** 22.2 µM

**Q.** What about the TGI (NCI-H460 lung) of the same compound?
**A.** 34.3 µM

**Q.** And the TGI (786-0 renal)?
**A.** 20 µM

**Q.** What about the TGI (HCC-2998 colon) of the same compound?
**A.** 3.79 µM

**Q.** What about the TGI (U251 CNS) of the same compound?
**A.** 19.3 µM

**Q.** What about the TGI (MDA-MB-435) of the same compound?
**A.** 3.7 µM

**Q.** What about the TGI (SNB-75 CNS) of the same compound?
**A.** 19.5 µM

**Q.** And the TGI (UACC-257 melanoma)?
**A.** 11.5 µM

**Q.** And the TGI (ACHN renal)?
**A.** 10.1 µM

**Q.** And the TGI (SR leukemia)?
**A.** 6.37 µM

**Q.** And the TGI (MALME-3M melanoma)?
**A.** 15.7 µM

**Q.** And the TGI (A549 NSCLC)?
**A.** 12.6 µM

**Q.** And the TGI (SK-OV-3 ovarian)?
**A.** 24.9 µM

**Q.** And the TGI (K-562 leukemia)?
**A.** > 100 µM

**Q.** What about the TGI (M14 melanoma) of the same compound?
**A.** 7.41 µM

**Q.** What does the source list for C(#CP(c1ccccc1)c1ccccc1)P(C#CP(c1ccccc1)c1ccccc1)c1ccccc1?
**A.** TGI (OVCAR-4 ovarian): > 100 µM; TGI (MDA-MB-231 breast): > 100 µM; TGI (OVCAR-5 ovarian): > 100 µM; TGI (OVCAR-3 ovarian): > 100 µM; TGI (SN12C renal): > 100 µM; TGI (COLO 205 colon): > 100 µM; TGI (BT-549 breast): > 100 µM; TGI (SNB-19 CNS): > 100 µM; TGI (T-47D breast): > 100 µM; TGI (UO-31 renal): > 100 µM; TGI (CCRF-CEM leukemia): > 100 µM; TGI (SK-MEL-28 melanoma): > 100 µM; TGI (HL-60(TB) leukemia): > 100 µM; TGI (SK-MEL-5 melanoma): > 100 µM; TGI (PC-3 prostate): > 100 µM; TGI (SK-MEL-2 melanoma): > 100 µM; TGI (NCI/ADR-RES ovarian): > 100 µM; TGI (IGROV1 ovarian): > 100 µM; TGI (OVCAR-8 ovarian): > 100 µM; TGI (MOLT-4 leukemia): > 100 µM; TGI (NCI-H522 lung): > 100 µM; TGI (MCF7 breast): > 100 µM; TGI (SW-620 colon): > 100 µM; TGI (CAKI-1 renal): > 100 µM; TGI (A498 renal): > 100 µM; TGI (TK-10 renal): > 100 µM; TGI (EKVX NSCLC): > 100 µM; TGI (UACC-62 melanoma): > 100 µM; TGI (KM12 colon): > 100 µM; TGI (HOP-92 NSCLC): > 100 µM; TGI (RXF 393 renal): > 100 µM; TGI (DU-145 prostate): > 100 µM; TGI (SF-295 CNS): 97.6 µM; TGI (NCI-H226 lung): > 100 µM; TGI (HOP-62 NSCLC): > 100 µM; TGI (HT29 colon): > 100 µM; TGI (SF-539 CNS): > 100 µM; TGI (HS 578T breast): > 100 µM; TGI (SF-268 CNS): > 100 µM; TGI (RPMI-8226 leukemia): > 100 µM; TGI (MDA-N): > 100 µM; TGI (HCT-116 colon): > 100 µM; TGI (HCT-15 colon): > 100 µM; TGI (NCI-H460 lung): > 100 µM; TGI (786-0 renal): > 100 µM; TGI (HCC-2998 colon): > 100 µM; TGI (U251 CNS): > 100 µM; TGI (MDA-MB-435): > 100 µM; TGI (SNB-75 CNS): > 100 µM; TGI (UACC-257 melanoma): > 100 µM; TGI (ACHN renal): > 100 µM; TGI (SR leukemia): > 100 µM; TGI (MALME-3M melanoma): > 100 µM; TGI (A549 NSCLC): > 100 µM; TGI (SK-OV-3 ovarian): 26.1 µM; TGI (K-562 leukemia): > 100 µM; TGI (M14 melanoma): 13 µM
